Source: US5252563A, “5,6,7,8-tetrahydro-imidazo[1,2-a]pyrimidine compounds for treatment of neurotoxic injury” (G. D. Searle & Company, priority 1991, dated 1993)
pKi: −log10 of the molar value. Where a name gives a salt, the structure may show the parent alone.

Experiments:
[1] = biological target: NMDA receptor (N-methyl-D-aspartate-specific L-[^3 H]glutamate recognition site in synaptic plasma membranes); assay: NMDA-Selective Glutamate Binding Assay ([^3 H]GLU)
Experimental: (§1) Synaptic plasma membranes (SPM) were prepared as previously described [Monahan, J.B. and Michel, J., "Identification and Characterization of an N-methyl-D-aspartate-specific L[^3 H]glutamate Recognition Site in Synaptic Plasma Membranes, J. Neurochem., 48, […] (1987)]. The SPM were stored at a concentration of 10-15 mg/ml in 0.32M sucrose, 0.5 mM EDTA, 1 mM MgSO4, 5 mM Tris/SO4, pH 7.4, under liquid nitrogen. The identity and purity of the subcellular fractions were confirmed by both electron microscopy and marker enzymes. Protein concentrations were determined by using a modification of the method of Lowry [Ohnishi, S.T. and Barr, J.K., "A Simplified Method of Quantitating Proteins Using the Biuret and Phenol Reagents", anal. Biochem., 86, 193-197 (1978)]. The SPM were treated identically for the [^3 H]AMPA (QUIS), [3H]kainate and sodium-dependent L-[^3 H]-glumatate binding assays. […] Beckman MP scintillation cocktail containing 7 mL/1 acetic acid was then added and the samples counted on a Beckman LS 5800 or 3801 liquid scintillation counter with automatic corrections for quenching and counting efficiency. […] Radioligand binding to the synaptic plasma membranes was analyzed using Scatchard and Hill transformations and the Ki values of the compounds determined using logit-log transformations. […]

[2] = biological target: Kainate (KA) receptor; assay: [^3 H]kainate (KA) receptor subclass binding assay, synaptic plasma membranes; conditions: 0.5 nM [^3 H]kainate; SPM; pH 7.4; 0-4° C., 60 min
Experimental: as §1

[3] = biological target: [^3 H]MK-801 binding, rat SPM (synaptic plasma membranes); assay: [^3 H]MK-801 Binding assay (modulation of [^3 H]MK-801 binding); conditions: 5.0 nM [^3 H]MK-801, L-glutamate 10.0 nM; Triton X-100 treated rat SPM; pH 7.4; 25° C., 30 min
Experimental: Modulation of [^3 H]MK-801 binding was performed using Triton X-100 (0.04% v/v) treated rat SPM that had been extensively washed. Assay incubations were at 25° C. for 30 min. and contained 5.0 nM [^3 H]MK-801, L-glutamate (10.0 nM), and various concentrations of the tested compounds in 50 mM Tris/acetate, pH 7.4. The assay was stopped by rapid filtration, using Brandel MB-48 Harvester, through Whatman GF/B filters treated with 0.05% polyethylenimine and the samples washed four times with 2.0 mL cold buffer. The radioactivity associated with the filter was determined by liquid scintillation spectrometry. Nonspecific binding was defined using 60 μM MK-801. IC50 were determined using a logit-log transformation of the binding data.

Row | Structure (SMILES) | pKi ([1]; NMDA-specific L-[^3 H]glutamate 12.5 nM, Triton X-100 treated SPM, pH 7.4, 0-4° C., 10 min) | KA Ki [2] [µM] | pKi [3] | [^3 H]GLU % inhibition ([1]; @ 10 μM) [%]
1 | O=C(O)c1cn2c(n1)NCCC2CP(=O)(O)O (stereo not shown) [Example 1, 5-Phosphonomethyl-5,6,7,8-tetrahydro-imidazo [1,2-a]pyrimidine-2-carboxylic acid, ammonium salt] | 6.15 | > 10 | 6.55 | –
2 | O=C(O)c1cn2c(n1)NC(CP(=O)(O)O)CC2 (stereo not shown) [Example 2, 7-phosphonomethyl-5,6,7,8-tetrahydro-imidazo[1,2-a]pyrimidine-2-carboxylicacid] | – | – | – | 42
